Reference: the NIST ThermoML archive (doi:10.1016/j.fluid.2005.03.028)
Numbers after ± are expanded uncertainties.

Experiment: excess molar enthalpy (molar enthalpy of mixing); xn = mol fraction of the nth substance listed
Settings: 303.15 K, 101.3 kPa, Liquid

Cc1cncc(C)c1 [3,5-dimethylpyridine] + CCCCCCC
Settings | excess molar enthalpy [kcal/mol]
x1 = 0.0712 | 0.0951 ± 0.00406
x1 = 0.2287 | 0.217 ± 0.00741
x1 = 0.2961 | 0.258 ± 0.00884
x1 = 0.3799 | 0.281 ± 0.00956
x1 = 0.4475 | 0.296 ± 0.01
x1 = 0.497 | 0.293 ± 0.0098
x1 = 0.5013 | 0.294 ± 0.0098
x1 = 0.5962 | 0.283 ± 0.00956
x1 = 0.6871 | 0.249 ± 0.00837
x1 = 0.7428 | 0.219 ± 0.00741
x1 = 0.85 | 0.137 ± 0.00526

Cc1cccc(C)n1 [2,6-dimethylpyridine] + CCCCCCCC
Settings | excess molar enthalpy [kcal/mol]
x1 = 0.108 | 0.12 ± 0.00478
x1 = 0.199 | 0.172 ± 0.00621
x1 = 0.202 | 0.182 ± 0.00645
x1 = 0.346 | 0.233 ± 0.00789
x1 = 0.413 | 0.246 ± 0.00837
x1 = 0.506 | 0.251 ± 0.0086
x1 = 0.597 | 0.246 ± 0.00837
x1 = 0.698 | 0.217 ± 0.00741
x1 = 0.708 | 0.208 ± 0.00717

Cc1cccc(C)n1 [2,6-dimethylpyridine] + CCCCCC
Settings | excess molar enthalpy [kcal/mol]
x1 = 0.1061 | 0.1 ± 0.0043
x1 = 0.2206 | 0.171 ± 0.00598
x1 = 0.2931 | 0.202 ± 0.00693
x1 = 0.3822 | 0.215 ± 0.00741
x1 = 0.4338 | 0.221 ± 0.00765
x1 = 0.4341 | 0.22 ± 0.00765
x1 = 0.4507 | 0.226 ± 0.00765
x1 = 0.5516 | 0.223 ± 0.00765
x1 = 0.6172 | 0.215 ± 0.00741
x1 = 0.7034 | 0.191 ± 0.00669
x1 = 0.7949 | 0.141 ± 0.00526
x1 = 0.884 | 0.0844 ± 0.00382

Cc1cccc(C)n1 [2,6-dimethylpyridine] + CCCCCCC
Settings | excess molar enthalpy [kcal/mol]
x1 = 0.1137 | 0.114 ± 0.00454
x1 = 0.1939 | 0.16 ± 0.00574
x1 = 0.26 | 0.194 ± 0.00669
x1 = 0.313 | 0.211 ± 0.00717
x1 = 0.318 | 0.216 ± 0.00741
x1 = 0.365 | 0.226 ± 0.00765
x1 = 0.4264 | 0.237 ± 0.00813
x1 = 0.46 | 0.241 ± 0.00813
x1 = 0.5077 | 0.242 ± 0.00813
x1 = 0.58 | 0.227 ± 0.00789
x1 = 0.7064 | 0.202 ± 0.00693
x1 = 0.7851 | 0.165 ± 0.00598
x1 = 0.857 | 0.123 ± 0.00478

Cc1cncc(C)c1 [3,5-dimethylpyridine] + CCCCCCCC
Settings | excess molar enthalpy [kcal/mol]
x1 = 0.1056 | 0.133 ± 0.00502
x1 = 0.2504 | 0.24 ± 0.00813
x1 = 0.3971 | 0.294 ± 0.0098
x1 = 0.4266 | 0.301 ± 0.01
x1 = 0.4971 | 0.304 ± 0.0103
x1 = 0.5313 | 0.305 ± 0.0103
x1 = 0.5417 | 0.303 ± 0.01
x1 = 0.6032 | 0.293 ± 0.0098
x1 = 0.7289 | 0.237 ± 0.00813
x1 = 0.8127 | 0.184 ± 0.00645
x1 = 0.914 | 0.0915 ± 0.00406

Cc1cncc(C)c1 [3,5-dimethylpyridine] + CCCCCC
Settings | excess molar enthalpy [kcal/mol]
x1 = 0.1064 | 0.137 ± 0.00526
x1 = 0.1889 | 0.201 ± 0.00693
x1 = 0.314 | 0.259 ± 0.00884
x1 = 0.434 | 0.275 ± 0.00932
x1 = 0.5119 | 0.278 ± 0.00932
x1 = 0.6092 | 0.26 ± 0.00884
x1 = 0.7259 | 0.214 ± 0.00741
x1 = 0.775 | 0.191 ± 0.00669
x1 = 0.8934 | 0.0978 ± 0.0043
x1 = 0.9495 | 0.0492 ± 0.00311
